Measurements as given in patent US9447157B2, “Nitration shielding peptides and methods of use thereof” (Augusta University Research Institute, Inc., priority 2013, dated 2016).

Molecular target: T1, PKG-1α (Homo sapiens, UniProt Q13976)
T1 construct: transfected with an expression plasmid containing a full length WT-PKG-1α cDNA; made in house; host or cells: HEK-293T (methods); the results paragraph b527 says PASMC
T1 sequence (Q13976 2-671): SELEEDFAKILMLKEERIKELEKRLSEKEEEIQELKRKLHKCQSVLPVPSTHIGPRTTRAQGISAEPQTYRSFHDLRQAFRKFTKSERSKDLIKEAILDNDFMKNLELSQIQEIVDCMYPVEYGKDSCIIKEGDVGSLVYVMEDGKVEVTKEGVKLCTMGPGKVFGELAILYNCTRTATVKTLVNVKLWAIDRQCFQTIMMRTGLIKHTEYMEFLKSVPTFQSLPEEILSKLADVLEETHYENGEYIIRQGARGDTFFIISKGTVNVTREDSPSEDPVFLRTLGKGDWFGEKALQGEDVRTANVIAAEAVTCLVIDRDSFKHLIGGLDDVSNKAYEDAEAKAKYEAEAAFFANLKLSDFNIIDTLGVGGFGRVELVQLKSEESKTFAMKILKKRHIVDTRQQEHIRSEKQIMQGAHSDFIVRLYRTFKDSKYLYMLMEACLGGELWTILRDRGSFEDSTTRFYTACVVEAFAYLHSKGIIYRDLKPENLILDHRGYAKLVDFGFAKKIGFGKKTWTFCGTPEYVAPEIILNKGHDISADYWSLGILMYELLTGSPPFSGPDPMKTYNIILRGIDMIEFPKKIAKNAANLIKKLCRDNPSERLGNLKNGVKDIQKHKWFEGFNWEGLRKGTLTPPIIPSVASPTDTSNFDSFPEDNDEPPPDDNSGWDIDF
Assay: 3-NT-Y247-PKG-1α immunoblot in transfected PASMC
Assay type: cell-based
Conditions: PASMC transfected with WT-PKG-1α, SIN-1 500 μM 30 min
Description: The 3-NT Y247 PKG-1α specific antibody was raised against a synthetic peptide antigen ENGE(Y-NO2)[…], where Y-NO2 represent 3-nitrotyrosine. The peptide was used to immunize rabbits. Tyrosine nitration-reactive rabbit antiserum was first purified by affinity chromatography. Further purification was carried out using immunodepletion by non-nitrated peptide […] resin chromatography, after which the resulting eluate was tested for antibody specificity by immunoblotting and immune-histochemistry with fluorescent staining.
Cells were prepared as previously described (Sud, N., et al., American Journal of Physiology 293, L1444-1453 (2007); Sharma, S., et al., American Journal of Physiology 294, L46-56 (2008)). Briefly, the cellular protein extracts were prepared by homogenizing the cells in lysis buffer (50 mM Tris-HCl, pH 7.6, 0.5% Triton X-100, and 20% glycerol) containing Halt protease inhibitor cocktail (Pierce, Rockford, Ill.). The extracts were then clarified by centrifugation (20,000 g for 20 min at 4° C.). […] Reactive bands were visualized using chemi-luminescence (Pierce Laboratories, Rockford, Ill.) on a Kodak 440CF image station. The band intensity was quantified using Kodak 1D image processing software. […]
PASMC were transiently transfected with expression plasmids containing WT- or Y247FPKG-1α for 48 h. […] The fluorescent-stained sections were analyzed using confocal microscopy.

WT-PKG-1α nitration (3-NT-Y247-PKG-1α antibody): significantly increased
Substance: 3-morpholinosydnonimine N-ethylcarbamide [SIN-1]
